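Exposure lasted 48 hours, with cells grown in 96-well plates and compounds tested at five concentrations. GI50 is the concentration that inhibits growth by half.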 Active and inactive are the calls of the source. Cut-off read from the data, not from the text of the source: active = GI50 up to about 1.1 µM and inactive = higher.
What was measured:
Experiment in all cases: inhibition of tumour cell growth, NCI panel, 48 h
Hs-578T = system: Hs-578T
T47D = system: T47D
DLD-1 = system: DLD-1
DMS-114 = system: DMS-114
HOP-18 = system: HOP-18
M19-MEL = system: M19-MEL
XF498 = system: XF498
LXFL 529 = system: LXFL 529

Row | SMILES | GI50 (Hs-578T) | GI50 (T47D) | also measured
1 | Cc1ccnc2nc(-c3ccc(F)cc3)cc(O)c12 | 72.4 µM (inactive) | > 72.6 µM (inactive) | 
2 | COc1ccc(Cc2nc3cc(C(F)(F)F)ccc3n2CCCN(C)C)cc1 | 17.5 µM (inactive) | 15.7 µM (inactive) | 
3 | CCC1=CC2CN3CCc4c([nH]c5ccccc45)C(C(=O)OC)(C2)C13 (stereo not given) |  |  | GI50 (DLD-1): 45.9 µM (inactive); GI50 (DMS-114): 39.4 µM (inactive); GI50 (HOP-18): 47.9 µM (inactive); GI50 (M19-MEL): 42.6 µM (inactive); GI50 (XF498): 35.7 µM (inactive)
4 | COc1cccc2c1C(=O)c1c(O)c3c(c(O)c1C2=O)C[C@](O)(C(=O)CO)CC3OC1CC(N)C(OC2CCCCO2)C(C)O1 (stereo not given in full) |  |  | GI50 (DLD-1): 0.675 µM (active); GI50 (HOP-18): 0.383 µM (active); GI50 (XF498): 0.0678 µM (active)
5 | Cc1cc(Nc2ccc(S(=O)(=O)O)c3cc(S(=O)(=O)O)cc(S(=O)(=O)O)c23)c2ccccc2n1 | > 100 µM (inactive) | > 100 µM (inactive) | 
6 | CCOP(=O)(OCC)C(c1ccc(F)cc1)N(C(=O)NC(F)(F)F)c1ccc(F)cc1 (stereo not given) | > 100 µM (inactive) |  | 
7 | O=C1CC(O)c2cscc21 (stereo not given) | > 100 µM (inactive) | > 100 µM (inactive) | 
8 | c1ccc(-c2c3c(nc4c2CC[C@H]4NC2=NCCN2)[C@@H](NC2=NCCN2)CC3)cc1 | > 100 µM (inactive) | > 100 µM (inactive) | 
9 | COc1cc(/C=C/C(=O)OCC23CC[C@@]4(C(=O)O)CCC(C)[C@H](C)C4C2=CCC2[C@@]4(C)CC[C@H](O)C(C)(C)C4CC[C@]23C)ccc1O (stereo not given in full) | 4.66 µM (inactive) | 48.5 µM (inactive) | 
10 | CCOC(=O)c1c2cccccc-2nc1Nc1cccc2c(C)ccnc12 | > 10 µM (inactive) | 2.66 µM (inactive) | 
11 | c1ccc(COC2C3COC(O3)C(OCc3ccccc3)C2OCc2ccccc2)cc1 (stereo not given) | 31.4 µM (inactive) | 22.9 µM (inactive) | 
12 | FC(F)(F)c1ccc2c(c1)nc(Cc1ccc(Cl)cc1)n2CC1CCCN2CCCCC12 (stereo not given) | 1.19 µM (inactive) | 6.61 µM (inactive) | 
13 | COc1cc(CNC(=O)CCCCCCCC/C=C/Br)ccc1O | > 10 µM (inactive) | > 10 µM (inactive) | 
14 | O=C(c1ccccc1)c1c(CC(O)c2ccncc2)n(C(=O)c2ccccc2)c2ccccc12 (stereo not given) |  |  | GI50 (DLD-1): 26.2 µM (inactive); GI50 (DMS-114): 16.9 µM (inactive); GI50 (LXFL 529): 18.8 µM (inactive); GI50 (M19-MEL): 17.9 µM (inactive)
15 | C=CCN1C(=O)NC(=O)/C(=C/c2c3ccccc3cc3ccccc23)C1=O |  |  | GI50 (DLD-1): 18.9 µM (inactive); GI50 (DMS-114): 19.1 µM (inactive); GI50 (M19-MEL): 34.4 µM (inactive); GI50 (XF498): 21.8 µM (inactive)
16 | O=c1c2cn[nH]c2nc2scc(-c3ccc(Cl)cc3)n12 | 41.7 µM (inactive) | > 100 µM (inactive) | 

Row | SMILES | GI50 (Hs-578T) | GI50 (T47D) | also measured
17 | Cc1ccc2nnc(NS(=O)(=O)c3cc(C)c(Cl)cc3S)n2n1 | > 100 µM (inactive) | > 100 µM (inactive) | 
18 | CC1=C2N3C[C@@H](n4c(=O)n(C)c(=O)n43)C23CCC1n1c(=O)n(C)c(=O)n13 |  |  | GI50 (DLD-1): 69.2 µM (inactive); GI50 (DMS-114): 30.8 µM (inactive); GI50 (HOP-18): > 100 µM (inactive); GI50 (LXFL 529): 85.1 µM (inactive); GI50 (M19-MEL): > 100 µM (inactive); GI50 (XF498): > 100 µM (inactive)
19 | Cc1cc2ncn(C3CCCO3)c2cc1C (stereo not given) | > 100 µM (inactive) | > 100 µM (inactive) | 
20 | CC1OC(OC2C(OC(=O)[C@]34CCC(C)(C)C[C@H]3C3=CC[C@@H]5[C@@]6(C)CC[C@H](OC7OC(CO)C(O)C(O)C7OC7OC(CO)C(O)C(O)C7O)C(C)(C)[C@@H]6CC[C@@]5(C)[C@]3(C)CC4)OCC(O)C2O)C(O)C(OC2OCC(O)C(O)C2O)C1OC1OCC(O)C(OC2OCC(O)C(O)C2O)C1O (stereo not given in full) | 21.4 µM (inactive) | 14.7 µM (inactive) | 
21 | CN(C(=O)c1ccco1)C(=S)N1CCN(c2ccccn2)CC1 |  |  | GI50 (DLD-1): > 100 µM (inactive); GI50 (HOP-18): > 100 µM (inactive); GI50 (LXFL 529): > 100 µM (inactive); GI50 (M19-MEL): > 100 µM (inactive); GI50 (XF498): > 100 µM (inactive)
22 | Cc1cn(C2CC(n3cc(Cn4cc(I)c(=O)[nH]c4=O)nn3)C(CO)O2)c(=O)[nH]c1=O (stereo not given) | > 100 µM (inactive) | > 100 µM (inactive) | 
23 | COc1ccc2c(C)cc(N/N=C/c3ccc(OC)c4ccccc34)nc2c1 | 15.7 µM (inactive) | 5.51 µM (inactive) | 
24 | Nc1ncnc2c(C3OC(CO)C(O)C3O)n[nH]c12 (stereo not given) |  |  | GI50 (DLD-1): 0.0575 µM (active); GI50 (DMS-114): 0.208 µM (active); GI50 (HOP-18): 0.0592 µM (active); GI50 (M19-MEL): 2.42 µM (inactive); GI50 (XF498): 0.158 µM (active)
25 | O=C(N[C@@H](Cc1ccccc1)B(O)O)[C@H](Cc1cccc2ccccc12)NC(=O)N1CCOCC1 | 0.00175 µM (active) | 0.00104 µM (active) | 
26 | Cc1cccc(Nc2nc3ccccc3nc2NS(=O)(=O)c2ccc(N)cc2)c1 | 49.5 µM (inactive) | 34.5 µM (inactive) | 
27 | COc1ccc(/C=C\c2cc(OC)c(OC)c(OC)c2)c(O)c1O [COMBRETASTATIN A-1] | < 0.01 µM (active) | > 49.9 µM (inactive) | GI50 (DLD-1): 0.123 µM (active); GI50 (DMS-114): 0.104 µM (active); GI50 (HOP-18): > 26.4 µM (inactive); GI50 (LXFL 529): 0.611 µM (active); GI50 (M19-MEL): 0.33 µM (active); GI50 (XF498): 0.0551 µM (active)
28 | [O-]/[N+](=C\c1ccccc1OC(=S)S)c1ccc(Cl)cc1 | 51.1 µM (inactive) | 6.01 µM (inactive) | 
29 | CC(=O)Oc1c(C)c2c(c3ccccc13)OC(C)(C)C2 | 21 µM (inactive) | 20.3 µM (inactive) | 
30 | C/C(Cc1ccc2c(c1)OCO2)=N\N=c1\sc2ccccc2n1C | > 100 µM (inactive) | 58.7 µM (inactive) | 
31 | NNc1[nH]c(=S)[nH]c1C(N)=O | > 100 µM (inactive) | > 100 µM (inactive) | 

Source: ChEMBL document CHEMBL1201862, “PubChem BioAssay data set” (2004)
